Measurements: US20240182531A1, “KV1.3 Blockers” (priority 2021, published 2024)
Where a SMILES comes first, the peptide text is derived from it. Bridges are numbered along the chain shown (N, C = ends). [ ]: non-standard residue; d: D form. Nle = CCCC[C@H](N)C(=O)O

How the values were obtained:
Experiment in all cases: cell-based
Details in all cases: ratio of patch clamp IC50 values
human Kv1.6 = molecular target: T1, human Kv1.6 (Homo sapiens, UniProt P17658)
T1 construct: expressed in transfected cells; host or cells: CHO

human Kv1.2 = molecular target: T2, human Kv1.2 (Homo sapiens, UniProt P16389)
T2 construct: expressed in transfected cells; host or cells: CHO

human Kv1.1 = molecular target: T3, human Kv1.1 (Homo sapiens, UniProt Q09470)
T3 construct: expressed in transfected cells; host or cells: CHO
T3 sequence (Q09470 whole entry): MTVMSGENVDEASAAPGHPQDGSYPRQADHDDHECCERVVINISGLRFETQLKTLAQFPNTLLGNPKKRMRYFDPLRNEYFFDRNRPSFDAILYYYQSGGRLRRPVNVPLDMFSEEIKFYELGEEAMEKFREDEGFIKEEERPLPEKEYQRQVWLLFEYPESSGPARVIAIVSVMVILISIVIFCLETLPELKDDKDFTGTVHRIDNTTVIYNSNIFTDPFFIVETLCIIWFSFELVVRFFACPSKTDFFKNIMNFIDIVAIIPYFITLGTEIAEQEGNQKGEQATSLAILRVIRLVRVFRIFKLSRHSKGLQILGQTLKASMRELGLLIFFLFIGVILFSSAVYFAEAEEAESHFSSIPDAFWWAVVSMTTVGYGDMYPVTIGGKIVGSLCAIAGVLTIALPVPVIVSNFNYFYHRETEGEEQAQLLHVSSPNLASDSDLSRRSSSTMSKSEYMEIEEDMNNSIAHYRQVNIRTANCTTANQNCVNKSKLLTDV

T1 sequence (P17658 whole entry): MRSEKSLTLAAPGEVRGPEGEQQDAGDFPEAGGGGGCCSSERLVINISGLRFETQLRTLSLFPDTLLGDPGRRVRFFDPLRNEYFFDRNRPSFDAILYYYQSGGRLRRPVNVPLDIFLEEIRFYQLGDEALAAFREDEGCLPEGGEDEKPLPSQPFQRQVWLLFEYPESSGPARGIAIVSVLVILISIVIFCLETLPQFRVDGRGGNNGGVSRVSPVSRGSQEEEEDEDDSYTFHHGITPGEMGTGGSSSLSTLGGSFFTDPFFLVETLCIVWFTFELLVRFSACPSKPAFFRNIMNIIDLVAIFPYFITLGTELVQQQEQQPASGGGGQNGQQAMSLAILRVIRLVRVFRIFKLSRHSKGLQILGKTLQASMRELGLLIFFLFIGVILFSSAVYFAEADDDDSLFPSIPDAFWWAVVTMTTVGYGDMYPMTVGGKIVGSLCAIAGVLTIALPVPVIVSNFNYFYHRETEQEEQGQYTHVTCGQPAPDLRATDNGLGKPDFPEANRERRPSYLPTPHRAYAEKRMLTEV
T2 sequence (P16389 whole entry): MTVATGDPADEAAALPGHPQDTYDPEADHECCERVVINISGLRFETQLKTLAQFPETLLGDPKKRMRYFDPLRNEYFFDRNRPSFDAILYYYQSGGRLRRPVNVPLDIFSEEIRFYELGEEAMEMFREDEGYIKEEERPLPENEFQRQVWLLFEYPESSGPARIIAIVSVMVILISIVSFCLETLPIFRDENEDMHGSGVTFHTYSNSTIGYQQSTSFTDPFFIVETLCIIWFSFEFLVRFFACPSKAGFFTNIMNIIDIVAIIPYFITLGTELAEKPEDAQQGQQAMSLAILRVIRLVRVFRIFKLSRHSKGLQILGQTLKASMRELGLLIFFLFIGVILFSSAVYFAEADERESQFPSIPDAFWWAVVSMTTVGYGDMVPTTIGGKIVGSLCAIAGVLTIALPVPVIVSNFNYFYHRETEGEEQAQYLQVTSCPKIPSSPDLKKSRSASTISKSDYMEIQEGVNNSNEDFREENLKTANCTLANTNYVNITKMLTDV

Structure (SMILES) | Selectivity ratio Kv1.6/Kv1.3 (human Kv1.6) | Selectivity ratio Kv1.2/Kv1.3 (human Kv1.2) | Selectivity ratio Kv1.1/Kv1.3 (human Kv1.1)
CC[C@H](C)[C@@H]1NC(=O)[C@H](C)NC(=O)[C@H](CCCCN)NC(=O)[C@H](CC(C)C)NC(=O)[C@@H]2CSSC[C@@H](C(=O)N[C@@H](Cc3ccc(O)cc3)C(=O)N3CCC[C@H]3C(=O)N[C@@H](CCCNC(=N)N)C(=O)O)NC(=O)[C@H](CCCCN)NC(=O)[C@@H]3CSSC[C@H](NC(=O)[C@H](CCC(=O)O)NC(=O)[C@H](C(C)C)NC(=O)[C@H](CO)NC(=O)[C@H](C)NC(=O)[C@H](CO)NC(=O)[C@@H](NC(=O)[C@H](CCCNC(=N)N)NC(=O)[C@H](CCSC)NC(=O)[C@H](CC(=O)O)NC(=O)[C@@H](NC(=O)[C@@H](N)CC(N)=O)[C@@H](C)CC)CSSC[C@H](NC(=O)[C@H](CCCCN)NC(=O)CNC(=O)[C@H](Cc4ccccc4)NC(=O)[C@H]([C@@H](C)CC)NC(=O)[C@H](CO)NC(=O)CNC1=O)C(=O)N[C@@H](CCSC)C(=O)N[C@@H](CC(N)=O)C(=O)N[C@@H](CCCCN)C(=O)N[C@@H](CCCCN)C(=O)N3)C(=O)N[C@@H](CCCCN)C(=O)N[C@@H](CCC(N)=O)C(=O)N[C@@H](CCCCN)C(=O)N2 [compound 19] (H-NIDMRCSASVECKQKCLKAIGSIFGKCMNKKCKCYPR-OH; disulfide 6-27, 12-32, 16-34) | >6800 | 857 | >6800
CC[C@H](C)[C@@H]1NC(=O)[C@H](C)NC(=O)[C@H](CCCCN)NC(=O)[C@H](CC(C)C)NC(=O)[C@@H]2CSSC[C@@H](C(=O)N[C@@H](Cc3ccc(O)cc3)C(=O)N3CCC[C@H]3C(=O)N[C@@H](CCCNC(=N)N)C(=O)O)NC(=O)[C@H](CCCCN)NC(=O)[C@@H]3CSSC[C@H](NC(=O)[C@H](CCC(=O)O)NC(=O)[C@H](C(C)C)NC(=O)[C@H](CO)NC(=O)[C@H](C)NC(=O)[C@H](CO)NC(=O)[C@@H](NC(=O)[C@H](CCCNC(=N)N)NC(=O)[C@H](CCSC)NC(=O)[C@H](CCC(=O)O)NC(=O)[C@H](CCSC)NC(=O)[C@@H](N)CC(N)=O)CSSC[C@H](NC(=O)[C@H](CCCCN)NC(=O)CNC(=O)[C@H](Cc4ccccc4)NC(=O)[C@H]([C@@H](C)CC)NC(=O)[C@H](CO)NC(=O)CNC1=O)C(=O)N[C@@H](CCSC)C(=O)N[C@@H](CC(N)=O)C(=O)N[C@@H](CCCCN)C(=O)N[C@@H](CCCCN)C(=O)N3)C(=O)N[C@@H](CCCCN)C(=O)N[C@@H](CCC(N)=O)C(=O)N[C@@H](CCCCN)C(=O)N2 [compound 20] (H-NMEMRCSASVECKQKCLKAIGSIFGKCMNKKCKCYPR-OH; disulfide 6-27, 12-32, 16-34) | >27600 | 2093 | >27600
CCCC[C@@H]1NC(=O)[C@@H]2CSSC[C@H](NC(=O)[C@H](CCCNC(=N)N)NC(=O)[C@H](CCCC)NC(=O)[C@H](CC(=O)O)NC(=O)[C@H](CCCC)NC(=O)[C@@H](N)CC(N)=O)C(=O)N[C@@H](CO)C(=O)N[C@@H](C)C(=O)N[C@@H](CO)C(=O)N[C@@H](C(C)C)C(=O)N[C@@H](CCC(=O)O)C(=O)N[C@H]3CSSC[C@H](NC(=O)[C@H](CCCCN)NC(=O)[C@H](CCCCN)NC(=O)[C@H](CC(N)=O)NC1=O)C(=O)N[C@@H](CCCCN)C(=O)N[C@H](C(=O)N[C@@H](Cc1ccc(O)cc1)C(=O)N1CCC[C@H]1C(=O)N[C@@H](CCCNC(=N)N)C(N)=O)CSSC[C@H](NC(=O)[C@H](CCCCN)NC(=O)[C@H](CCC(N)=O)NC(=O)[C@H](CCCCN)NC3=O)C(=O)N[C@@H](CC(C)C)C(=O)N[C@@H](CCCCN)C(=O)N[C@@H](C)C(=O)N[C@@H]([C@@H](C)CC)C(=O)NCC(=O)N[C@@H](CO)C(=O)N[C@@H]([C@@H](C)CC)C(=O)N[C@@H](Cc1ccccc1)C(=O)NCC(=O)N[C@@H](CCCCN)C(=O)N2 [compound 44] (H-N[Nle]D[Nle]RCSASVECKQKCLKAIGSIFGKC[Nle]NKKCKCYPR-NH2; disulfide 6-27, 12-32, 16-34) | 7073 | 436 | >11600
CC[C@H](C)[C@@H]1NC(=O)[C@H](C)NC(=O)[C@H](Cc2ccc(O)cc2)NC(=O)[C@H](CC(C)C)NC(=O)[C@@H]2CSSC[C@@H](C(=O)N[C@@H](Cc3ccc(O)cc3)C(=O)N3CCC[C@H]3C(=O)N[C@@H](CCCNC(=N)N)C(N)=O)NC(=O)[C@H](CCCCN)NC(=O)[C@@H]3CSSC[C@H](NC(=O)[C@H](CCC(=O)O)NC(=O)[C@H](C(C)C)NC(=O)[C@H](CO)NC(=O)[C@H](C)NC(=O)[C@H](CO)NC(=O)[C@@H](NC(=O)[C@H](CCCNC(=N)N)NC(=O)[C@H](CCSC)NC(=O)[C@H](CC(=O)O)NC(=O)[C@H](CCSC)NC(=O)[C@@H](N)CC(N)=O)CSSC[C@H](NC(=O)[C@H](CCCCN)NC(=O)CNC(=O)[C@H](Cc4ccccc4)NC(=O)[C@H]([C@@H](C)CC)NC(=O)[C@H](CO)NC(=O)CNC1=O)C(=O)N[C@@H](CCSC)C(=O)N[C@@H](CC(N)=O)C(=O)N[C@@H](CCCCN)C(=O)N[C@@H](CCCCN)C(=O)N3)C(=O)N[C@@H](CCCCN)C(=O)N[C@@H](CCC(N)=O)C(=O)N[C@@H](CCCCN)C(=O)N2 [compound 57] (H-NMDMRCSASVECKQKCLYAIGSIFGKCMNKKCKCYPR-NH2; disulfide 6-27, 12-32, 16-34) | >10300 | 514 | >10300
CC[C@H](C)[C@@H]1NC(=O)[C@H](C)NC(=O)[C@H](CC(C)C)NC(=O)[C@@H]2CSSC[C@@H](C(=O)N[C@@H](Cc3ccc(O)cc3)C(=O)N3CCC[C@H]3C(=O)N[C@@H](CCCNC(=N)N)C(N)=O)NC(=O)[C@H](CCCCN)NC(=O)[C@@H]3CSSC[C@H](NC(=O)[C@H](CCC(=O)O)NC(=O)[C@H](C(C)C)NC(=O)[C@H](CO)NC(=O)[C@H](C)NC(=O)[C@H](CO)NC(=O)[C@@H](NC(=O)[C@H](CCCNC(=N)N)NC(=O)[C@H](CCSC)NC(=O)[C@H](CC(=O)O)NC(=O)[C@H](CCSC)NC(=O)[C@@H](N)CC(N)=O)CSSC[C@H](NC(=O)[C@H](CCCCN)NC(=O)CNC(=O)[C@H](Cc4ccccc4)NC(=O)[C@H]([C@@H](C)CC)NC(=O)[C@H](CO)NC(=O)CNC1=O)C(=O)N[C@@H](CCSC)C(=O)N[C@@H](CC(N)=O)C(=O)N[C@@H](CCCCN)C(=O)N[C@@H](CCCCN)C(=O)N3)C(=O)N[C@@H](CCCCN)C(=O)N[C@@H](CCC(N)=O)C(=O)N[C@@H](CCCCN)C(=O)N2 [compound 58] (H-NMDMRCSASVECKQKCLAIGSIFGKCMNKKCKCYPR-NH2; disulfide 6-26, 12-31, 16-33) | >1200 | 121 | >1200
